“Also recorded” adds a separate entry of the source. Where a SMILES comes first, the peptide text is derived from it. [ ]: non-standard residue; d: D form.
What was measured:
[1] = test system: human neural crest stem cells (7SM0032); format: cell-based; details: 72 h
Procedure: (§1) The human NB cell lines, SK-N-DZ, SK-N-BE(2)c, SK-N-AS, SK-N-SH, and SK-N-FI were obtained from the American Type Culture Collection (Rockville, MD). Cells were maintained in DMEM with 10% fetal bovine serum (FBS), 100 units/ml penicillin, and 100 µg/ml streptomycin in the presence of 5% CO2 at 37°C. Human PBMCs from a healthy donor were purchased from Sanguine BioSciences (Valencia, CA) and grown in RPMI1640 with10% FBS, 100 units/ml penicillin, 100 µg/ml streptomycin, and 10 ng/ml IL-2 in the presence of 5% CO2 at 37°C. Human embryonic progenitor cell line 7SM0032 was acquired from Millipore (Billerica, MA) and grown in the hEPM-1 Media Kit purchased from the same company.
(§2) To measure cell growth, cells were seeded at 3×10^4/ml. After being allowed to attach overnight, cells were treated with various concentrations of the peptides for 72 h. Cell growth was measured by the CellTitor-Glo assay (Promega, Madison, WI) according to manufacturer's instruction. To measure apoptosis, cells were seeded at 1×10^5/ml onto a chamber slide. Once attached, cells were treated with the peptides for 48 h. Cells were fixed and analyzed by a TUNEL assay using the TMR red in situ cell death detection kit (Roche Diagnostics, Indianapolis, IN).

[2] = test system: human peripheral blood mononuclear cells (PBMC); format: cell-based; details: 72 h
Procedure: as §1, §2

synchronized cells = experiment: Cell cycle analysis of synchronized cells within 6 h (data not shown); format: cell-based; details: 6 h after mimosine release
Procedure: Cells were seeded at 1×10^5/ml. Once attached, cells were treated with or without R9-caPep for 48 hours. Cells were fixed in 60% ethanol and stained with propidium iodide (PI). The cellular PI fluorescence intensity was determined by flow cytometry. The flow cytometry data were analyzed by the FlowJo program to model various cell populations.
Cells were seeded at 1×10^5/ml onto a chamber slide and were allowed to attach overnight. To analyze the interaction of PCNA with FEN1, LIGI, or Pol ä, we first synchronize cells at the G1/S boundary. The synchronization is achieved by starving cells in medium containing 0.25% FBS for 24 h. Cells were further cultured in the complete medium containing 400 µM of mimosine for 24 h. To release cells into S phase, cells were washed and incubated in mimosine-free medium containing 30 µM R9-caPep or R9-srbPep for 6 h. We pre-determined that the majority of cells were in the S-phase 6 h after mimosine was removed (data not shown). Cells were fixed in ice-cold methanol:acetone (50%:50%) for 10 min or in 4% paraformaldehyde for 20 min at room temperature. Cells were incubated with a goat polyclonal anti-PCNA antibody (Santa Cruz) and a mouse monoclonal anti-FEN1 antibody (Santa Cruz), a mouse anti-POLD3 antibody (Sigma, St. Louis, MO), or a mouse anti-LIGI antibody (Abcam, Cambridge, MA) for 1 h at room temperature. […]

[3] = test system: SK-N-BE(2)c cells, DNA synthesis; experiment: BrdU incorporation assay; format: cell-based, human; details: peptide 7.5 h then 10 µM BrdU 30 min, vs R9-srbPep, triplicates
Procedure: SK-N-BE(2)c cells were treated with the peptides for 7.5 h and then incubated in 10 ìmol/L BrdU for an additional 30 min in the continuous presence of the peptides. Cells were detached with trypsin and fixed in Cytofix/Cytoperm buffer according to the manufacturer's instructions (BD Bioscience, San Jose, CA). Fixed cells were treated with DNase to expose incorporated BrdU and stained with FITC-conjugated anti-BrdU antibody (BD Bioscience) for 1 h at room temperature. Samples were analyzed by flow cytometry to quantify the amount of BrdU incorporation. Percentages of FITC-positive cells were determined by analysis with the FlowJo software. Statistical analysis was conducted using a two-tailed t-test.

SK-N-BE(2)c cells = experiment: TUNEL apoptosis assay, SK-N-BE(2)c; format: cell-based, human; details: 40 µM, 48 h, six fields
Procedure: as §2

[4] = test system: EJ-mediated DSB repair, U2OS-derived EJ5-GFP cells; experiment: DSB repair reporter assay, EJ (EJ5-GFP); format: cell-based; details: 30 µM, GFP-positive cells 3 d after I-SceI transfection, normalized to R9-srbPep, triplicates
Procedure: The plasmid pCBASce expresses the rare cutting I-SceI meganuclease. The U2OS-derived cell lines, DR-GFP, EJ5-GFP, and SA-GFP contain a stably transfected reporter gene for DSB repair mediated by HR, end joining (EJ), and single-strand annealing (SSA), respectively. These cell lines were cultured in DMEM medium with 10% FBS at 37°C in the presence of 5% CO2.
DR-GFP, EJ5-GFP, and SA-GFP cell lines were seeded at 2.5×10^4 cells/cm^2 in a 12-well plate. Once attached overnight, cells were transfected with 1.2 µg of the pCBASce I-SceI expression plasmid mixed with 3.6 µl of Lipofectamine 2000 (Invitrogen) in 200 µl of Optimem media (Invitrogen). After incubation for 3 h, the media containing transfection complexes was aspirated and replaced with fresh media containing 30 µM of the peptides. The HR, EJ, and SSA-mediated DSB repair, indicated by the restoration of a functional GFP gene in the respective cell lines, were quantified by measuring the relative abundance of GFP-positive cells by flow cytometry 3 d after transfection.

## CC[C@H](C)[C@H](NC(=O)CNC(=O)[C@H](CC(C)C)NC(=O)[C@H](CS)NC(=O)[C@H](CS)NC(=O)[C@@H](CCCNC(=N)N)NC(=O)[C@@H](CCCNC(=N)N)NC(=O)[C@@H](CCCNC(=N)N)NC(=O)[C@@H](CCCNC(=N)N)NC(=O)[C@@H](CCCNC(=N)N)NC(=O)[C@@H](CCCNC(=N)N)NC(=O)[C@@H](CCCNC(=N)N)NC(=O)[C@@H](CCCNC(=N)N)NC(=O)[C@H](N)CCCNC(=N)N)C(=O)N1CCC[C@H]1C(=O)N[C@@H](CCC(=O)O)C(=O)N[C@@H](CCC(N)=O)C(=O)N[C@@H](CCC(=O)O)C(=O)N[C@@H](Cc1ccc(O)cc1)C(=O)O [R9-caPep] (H-[dR][dR][dR][dR][dR][dR][dR][dR][dR]CCLGIPEQEY-OH; N-terminus and C-terminus assumed)
[1]
  IC50: > 100 µM
[2]
  IC50: 98 µM
Synchronized cells
  cell cycle progress within 6 h: neither peptide significantly affected cell cycle progress within 6 h
[3]
  percentage of BrdU-positive cells: significant reduction in the percentage of BrdU-positive cells
SK-N-BE(2)c cells
  apoptosis: TUNEL positivity: increased TUNEL positivity
[4]
  EJ-mediated DNA repair: only small effects on EJ or SSA; also recorded: little effect on the EJ pathway

Source: article PMC3984256, “A PCNA-Derived Cell Permeable Peptide Selectively Inhibits Neuroblastoma Cell Growth” (PLoS ONE, 2014)
